Key:
Human HDAC9 = target: T1, Human HDAC9 (Homo sapiens, UniProt Q9UKV0); assay: HDAC9 biochemical assay, class IIa-specific substrate; conditions: read-out: HDAC Isoform IC50 (nM) 9
T1 construct: amino acids 604-1066 with C-terminal His tag; His (C); host or cells: baculovirus expression system
In short: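 HDAC9 residues 604-1066 (C-terminal His tag, baculovirus-expressed) at 0.06 ng/ul with 50 μM class IIa substrate Boc-Lys(trifluoroacetyl)-AMC in Tris-HCl pH 8.0 buffer with BSA and 1% DMSO. 30 min at room temperature, then developer added; fluorescence read at 360/460 nm Ex/Em.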

[1] = system: acetylated α-tubulin in A549 lung adenocarcinoma cells; assay: Acetylated α-tubulin in-cell western (ICW) assay; format: cell-based; conditions: Homo sapiens, 16 h exposure, relative to 40 μM scriptaid positive control, read-out: EC50 Ac-α-tubulin, A549 cells
Description: (§1) Acetylated α-Tubulin and Histone H3 in-Cell Western (ICW) Assays
(§2) A549 cells were maintained in DMEM (Life Technologies)+10% FBS+2 mM glutamine & penicillin (10 μg/mL) and streptomycin ([…]. 10,000 A549 cells per well were plated into 96 well tissue culture plates (Corning) and incubated at 37° C. overnight in a humidified atmosphere containing 5% CO2 prior to addition of compounds. Compounds (dissolved in 100% DMSO) were diluted into cell culture media at 2× final assay concentration. 2× compound or DMSO (negative control) were added to cells (final DMSO concentration 0.4%). Untreated control wells received media. For acetylated α-tubulin assays, 40 μM scriptaid was used as a positive control. For acetylated histone H3 assays, 40 μM Trichostatin A (TSA) was used as a positive control. Cells were exposed to compound at 37° C. in a humidified atmosphere containing 5% CO2 for 16 h.
(§3) Measurement of the impact of compounds on levels of acetylated α-tubulin and histone H3 was performed using specific antibodies and near-infrared immunofluorescent dyes. Briefly, media was removed from wells of assay plates. Cells were washed once with PBS and fixed in 3.7% formaldehyde PBS solution at room temperature for 20 min. Cells were then permeabilised by washing 5 times in 0.1% triton-X-100 PBS at room temperature with gentle agitation for 5 min per wash. Non-specific antibody staining was blocked by the addition of Odyssey blocking buffer (Li-Cor) for 1.5 h at room temperature with gentle agitation. Cells were then incubated with primary antibody (mouse monoclonal anti-acetylated α-tubulin (clone 6-11B-1), Sigma or rabbit polyclonal anti-acetylated histone H3, Millipore) diluted in Odyssey blocking buffer at 4° C. with gentle shaking overnight (no antibody control and secondary antibody only wells were incubated with Odyssey blocking buffer only). Cells were washed five times with 0.1% tween PBS and labelled with secondary antibody (IR dye 800CW-conjugated goat anti mouse IgG or -goat anti rabbit IgG, Li-Cor) and cell stains Sapphire700 (Li-Cor) and Draq5 (Biostatus) diluted in Odyssey blocking buffer at room temperature in the dark with gentle shaking for 1 h (no antibody control wells were incubated with Odyssey blocking buffer only and secondary antibody only with diluted secondary antibody but no cell stains). Cells were washed with 0.1% Tween PBS five times and scanned using a Li-Cor Odyssey SA plate reader in 700 and 800 nm channels. Acetylated α-tubulin or histone H3 signal was normalised to cell number using the cell stain signal. Percentage increase in acetylated α-tubulin or histone H3 after compound treatment over the mean of DMSO treated controls, relative to scriptaid and TSA positive controls, respectively was calculated. EC50 values were calculated using GraphPad Prism software and nonlinear regression with 0% bottom and 100% top constraints.

[2] = system: acetylated histone H3 in A549 lung adenocarcinoma cells; assay: Acetylated histone H3 in-cell western (ICW) assay; format: cell-based; conditions: Homo sapiens, 16 h exposure, relative to 40 μM Trichostatin A positive control, read-out: EC50 Ac-histone H3, A549 cells
Description: as §1, §2, §3

Human HDAC7 = target: T2, Human HDAC7 (Homo sapiens, UniProt Q8WUI4); assay: HDAC7 biochemical assay, class IIa-specific substrate; conditions: read-out: HDAC Isoform IC50 (nM) 7
T2 construct: (a.a. 518-end) with N-terminal GST tag; GST (N); host or cells: baculovirus expression system
T2 sequence (Q8WUI4 518-952 limits assumed): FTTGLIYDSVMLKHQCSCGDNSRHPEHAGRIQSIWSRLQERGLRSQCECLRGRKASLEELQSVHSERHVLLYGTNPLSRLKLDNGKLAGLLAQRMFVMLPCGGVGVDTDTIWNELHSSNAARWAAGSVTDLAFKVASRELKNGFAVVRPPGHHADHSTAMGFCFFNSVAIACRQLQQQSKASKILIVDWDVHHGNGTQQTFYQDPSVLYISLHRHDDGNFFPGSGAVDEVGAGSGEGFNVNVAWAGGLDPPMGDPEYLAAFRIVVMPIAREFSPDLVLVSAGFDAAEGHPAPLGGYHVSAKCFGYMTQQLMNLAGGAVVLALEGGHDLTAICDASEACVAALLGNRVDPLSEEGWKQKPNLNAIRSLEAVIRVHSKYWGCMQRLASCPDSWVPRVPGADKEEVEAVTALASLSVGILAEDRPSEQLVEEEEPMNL
In short: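 Two-step fluorogenic readout: class IIa-selective trifluoroacetyl-lysine AMC substrate (50 μM) deacetylated by N-terminal GST-HDAC7 fragment (0.001 ng/ul), then digested by developer, Ex/Em 360/460. Reaction: 30 min, room temperature, Tris-HCl pH 8.0, NaCl/KCl/MgCl2, 1 mg/mL BSA, 1% DMSO.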

T1 sequence (Q9UKV0 604-1066 isoform Q9UKV0-5): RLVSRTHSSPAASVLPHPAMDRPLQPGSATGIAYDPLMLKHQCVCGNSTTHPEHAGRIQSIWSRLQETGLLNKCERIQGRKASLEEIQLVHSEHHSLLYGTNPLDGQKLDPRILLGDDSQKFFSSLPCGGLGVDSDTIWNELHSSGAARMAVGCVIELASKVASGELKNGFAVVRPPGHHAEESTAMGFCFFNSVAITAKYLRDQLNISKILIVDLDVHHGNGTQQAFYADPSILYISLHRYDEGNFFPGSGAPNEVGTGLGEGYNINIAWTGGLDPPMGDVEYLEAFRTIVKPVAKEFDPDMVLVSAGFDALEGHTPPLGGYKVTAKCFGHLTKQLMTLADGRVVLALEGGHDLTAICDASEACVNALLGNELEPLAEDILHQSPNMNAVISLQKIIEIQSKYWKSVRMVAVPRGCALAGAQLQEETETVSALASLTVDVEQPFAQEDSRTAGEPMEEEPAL

O=C(c1cnnc(N(Cc2ccc(-c3noc(C(F)(F)F)n3)s2)c2cnccn2)c1)N1CC(C(F)(F)F)C1 [Example GJ, N-(Pyrazin-2-yl)-N-({5-[5-(trifluoromethyl)-1,2,4-oxadiazol-3-yl]thiophen-2-yl}methyl)-5-[3-(trifluoromethyl)azetidine-1-carbonyl]pyridazin-3-amine]
IC50 (Human HDAC9): ≤ 10000 nM
EC50 [1]: ≤ 1 µM
EC50 [2]: ≥ 10 µM
IC50 (Human HDAC7): ≤ 1000 nM

O=C(c1cnnc(N(Cc2ccc(-c3noc(C(F)(F)F)n3)s2)c2cnccn2)c1)N1CCC1 [Example FS, 5-(Azetidine-1-carbonyl)-N-(pyrazin-2-yl)-N-({5-[5-(trifluoromethyl)-1,2,4-oxadiazol-3-yl]thiophen-2-yl}methyl)pyridazin-3-amine]
IC50 (Human HDAC9): ≤ 10000 nM
EC50 [1]: ≤ 1 µM
EC50 [2]: ≥ 10 µM
IC50 (Human HDAC7): ≤ 1000 nM

Cc1cnc(N(Cc2ccc(-c3noc(C(F)(F)F)n3)s2)c2cnccn2)cn1 [Example BH, 5-Methyl-N-(pyrazin-2-yl)-N-({5-[5-(trifluoromethyl)-1,2,4-oxadiazol-3-yl]thiophen-2-yl}methyl)pyrazin-2-amine]
IC50 (Human HDAC9): ≤ 10000 nM
EC50 [1]: 1 to 10 µM
EC50 [2]: ≥ 10 µM
IC50 (Human HDAC7): ≤ 1000 nM

COC1CN(Cc2ccnc(N(Cc3ccc(-c4noc(C(F)(F)F)n4)s3)c3cnccn3)c2)C1 [Example GH, N-{4-[(3-Methoxyazetidin-1-yl)methyl]pyridin-2-yl}-N-({5-[5-(trifluoromethyl)-1,2,4-oxadiazol-3-yl]thiophen-2-yl}methyl)pyrazin-2-amine]
IC50 (Human HDAC9): ≤ 10000 nM
EC50 [1]: ≤ 1 µM
EC50 [2]: ≥ 10 µM
IC50 (Human HDAC7): ≤ 10000 nM

O=C(c1cnnc(N(Cc2ccc(-c3noc(C(F)(F)F)n3)s2)c2cnccn2)c1)N1C[C@@H]2C[C@H]1CO2 [Example FV, 5-[(1S,4S)-2-Oxa-5-azabicyclo[2.2.1]heptane-5-carbonyl]-N-(pyrazin-2-yl)-N-({5-[5-(trifluoromethyl)-1,2,4-oxadiazol-3-yl]thiophen-2-yl}methyl)pyridazin-3-amine]
IC50 (Human HDAC9): ≤ 10000 nM
EC50 [1]: ≤ 1 µM
EC50 [2]: ≥ 10 µM
IC50 (Human HDAC7): ≤ 10000 nM

FC(F)(F)c1cnc(N(Cc2ccc(-c3noc(C(F)(F)F)n3)s2)c2cnccn2)cn1 [Example BK, N-(Pyrazin-2-yl)-5-(trifluoromethyl)-N-({5-[5-(trifluoromethyl)-1,2,4-oxadiazol-3-yl]thiophen-2-yl}methyl)pyrazin-2-amine]
IC50 (Human HDAC9): ≤ 10000 nM
IC50 (Human HDAC7): ≤ 10000 nM

O=C(c1cncc(N(Cc2ccc(-c3noc(C(F)(F)F)n3)s2)c2cnccn2)c1)N1CCOCC1 [Example GR, N-[5-(Morpholine-4-carbonyl)pyridin-3-yl]-N-({5-[5-(trifluoromethyl)-1,2,4-oxadiazol-3-yl]thiophen-2-yl}methyl)pyrazin-2-amine]
IC50 (Human HDAC9): ≤ 10000 nM
IC50 (Human HDAC7): ≤ 500 nM

FC(F)(F)c1nc(-c2ccc(CN(c3ccccn3)c3ccccn3)s2)no1 [Example U, N-(Pyridin-2-yl)-N-({5-[5-(trifluoromethyl)-1,2,4-oxadiazol-3-yl]thiophen-2-yl}methyl)pyridin-2-amine]
IC50 (Human HDAC9): ≤ 10000 nM
IC50 (Human HDAC7): ≤ 10000 nM

O=C(c1cnnc(N(Cc2ccc(-c3noc(C(F)(F)F)n3)s2)c2cnccn2)c1)N1CC2CCC(C1)O2 [Example GA, 5-{8-Oxa-3-azabicyclo[3.2.1]octane-3-carbonyl}-N-(pyrazin-2-yl)-N-({5-[5-(trifluoromethyl)-1,2,4-oxadiazol-3-yl]thiophen-2-yl}methyl)pyridazin-3-amine]
IC50 (Human HDAC9): ≤ 10000 nM
IC50 (Human HDAC7): ≤ 10000 nM

FC(F)(F)c1nc(-c2ccc(CN(c3cnccn3)c3cc(N4CCCC4)cnn3)s2)no1 [Example FQ, N-(Pyrazin-2-yl)-5-(pyrrolidin-1-yl)-N-({5-[5-(trifluoromethyl)-1,2,4-oxadiazol-3-yl]thiophen-2-yl}methyl)pyridazin-3-amine]
IC50 (Human HDAC9): ≤ 10000 nM
IC50 (Human HDAC7): ≤ 10000 nM

FC(F)(F)c1nc(-c2ccc(CN(c3cnccn3)c3ncccn3)s2)no1 [Example AS, N-(Pyrimidin-2-yl)-N-({5-[5-(trifluoromethyl)-1,2,4-oxadiazol-3-yl]thiophen-2-yl}methyl)pyrazin-2-amine]
IC50 (Human HDAC9): ≤ 10000 nM
IC50 (Human HDAC7): ≤ 10000 nM

COc1nccnc1N(Cc1ccc(-c2noc(C(F)(F)F)n2)s1)c1cnccn1 [Example BF, 3-Methoxy-N-(pyrazin-2-yl)-N-({5-[5-(trifluoromethyl)-1,2,4-oxadiazol-3-yl]thiophen-2-yl}methyl)pyrazin-2-amine]
IC50 (Human HDAC9): ≤ 10000 nM
IC50 (Human HDAC7): ≤ 10000 nM

COc1cnc(N(Cc2ccc(-c3noc(C(F)(F)F)n3)s2)c2cnccn2)cn1 [Example BI, 5-Methoxy-N-(pyrazin-2-yl)-N-({5-[5-(trifluoromethyl)-1,2,4-oxadiazol-3-yl]thiophen-2-yl}methyl)pyrazin-2-amine]
IC50 (Human HDAC9): ≤ 10000 nM
IC50 (Human HDAC7): ≤ 500 nM

FC(F)(F)c1nc(-c2ccc(CN(c3cnccn3)c3cc(CN4CCCC4)ccn3)s2)no1 [Example GG, N-{4-[(Pyrrolidin-1-yl)methyl]pyridin-2-yl}-N-({5-[5-(trifluoromethyl)-1,2,4-oxadiazol-3-yl]thiophen-2-yl}methyl)pyrazin-2-amine]
IC50 (Human HDAC9): ≤ 10000 nM
IC50 (Human HDAC7): ≤ 1000 nM

Cc1nccnc1N(Cc1ccc(-c2noc(C(F)(F)F)n2)s1)c1cnccn1 [Example BE, 3-Methyl-N-(pyrazin-2-yl)-N-({5-[5-(trifluoromethyl)-1,2,4-oxadiazol-3-yl]thiophen-2-yl}methyl)pyrazin-2-amine]
IC50 (Human HDAC9): ≤ 1000 nM
IC50 (Human HDAC7): ≤ 500 nM

CN(C(=O)c1cnnc(N(Cc2ccc(-c3noc(C(F)(F)F)n3)s2)c2cnccn2)c1)S(C)(=O)=O [Example GE, N-Methanesulfonyl-N-methyl-6-[(pyrazin-2-yl)({5-[5-(trifluoromethyl)-1,2,4-oxadiazol-3-yl]thiophen-2-yl}methyl)amino]pyridazine-4-carboxamide]
IC50 (Human HDAC9): ≤ 10000 nM
IC50 (Human HDAC7): ≤ 1000 nM

O=C(c1ccc(N(Cc2ccc(-c3noc(C(F)(F)F)n3)s2)c2cnccn2)nn1)N1C[C@@H]2C[C@H]1C[S@@+]2[O-] [Example FR, (1S,2R,4S)-5-{6-[(Pyrazin-2-yl)({5-[5-(trifluoromethyl)-1,2,4-oxadiazol-3-yl]thiophen-2-yl}methyl)amino]pyridazine-3-carbonyl}-2-thia-5-azabicyclo[2.2.1]heptan-2-ium-2-olate]
IC50 (Human HDAC9): ≤ 1000 nM
IC50 (Human HDAC7): ≤ 500 nM

O=C(c1cnnc(N(Cc2ccc(-c3noc(C(F)(F)F)n3)s2)c2cnccn2)c1)N1CC(F)(F)C1 [Example FT, 5-(3,3-Difluoroazetidine-1-carbonyl)-N-(pyrazin-2-yl)-N-({5-[5-(trifluoromethyl)-1,2,4-oxadiazol-3-yl]thiophen-2-yl}methyl)pyridazin-3-amine]
IC50 (Human HDAC9): ≤ 10000 nM
IC50 (Human HDAC7): ≤ 10000 nM

Source: US20210038607A1, “OXADIAZOLYLTHIOPHENE DERIVATIVES USEFUL AS HISTONE DEACETYLASE INHIBITORS” (Karus Therapeutics Limited, priority 2018, published 2021)
